Here are results for 16 molecules from PubChem BioAssay (NCI).

Test systems include T-47D breast; SK-MEL-2 melanoma; ACHN renal; NCI-H460 lung; M14 melanoma; SW-620 colon; SNB-19 CNS; SF-539 CNS; CAKI-1 renal; MDA-MB-231 breast.
Holding throughout (test): growth of human tumour cells (NCI), 48 h

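In this assay, cells in 96-well plates receive the compound at five concentrations for 48 hours. Endpoints are linearly interpolated between the surrounding concentrations. Definition used: TGI = concentration required for complete inhibition of growth.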

As to `CN(C)NC1=NS(=O)(=O)c2cc3c(=O)n(C)[nH]c3cc2S1`, the TGI in the assay on T-47D breast, in the assay on SK-MEL-2 melanoma, with ACHN renal, in the assay on NCI-H460 lung, in the assay with M14 melanoma and with SW-620 colon was more than 10 µM each time. The TGI with SNB-19 CNS, in the assay on SF-539 CNS and with CAKI-1 renal was more than 10 µM in each case.
As for `OCC1OC(n2cnc3c(Cl)nc(Nc4ccc(Cl)c(Cl)c4)nc32)CC1O` (configuration not stated), the TGI was more than 50 µM in the assay on T-47D breast; 19.2 µM in the assay with SK-MEL-2 melanoma; 19.9 µM with ACHN renal; 16.8 µM in the assay with NCI-H460 lung; 32 µM with M14 melanoma; 27.5 µM with SW-620 colon. Also, the TGI in the assay with MDA-MB-231 breast is 23.5 µM; in the assay on SNB-19 CNS, more than 50 µM; in the assay on CAKI-1 renal, 33.7 µM.
With `C=C1CN2CCc3c([nH]c4ccccc34)C2CC1CC(=O)N(C)C` (configuration not stated), the TGI in the assay on SK-MEL-2 melanoma, in the assay with ACHN renal, in the assay on NCI-H460 lung, in the assay with SW-620 colon, with SNB-19 CNS and in the assay on SF-539 CNS was more than 309 µM in each case. In the assay with CAKI-1 renal, this molecule came in with a TGI of more than 309 µM.
Consider `O=C1N[C@H](C(=O)O)[C@@H](c2ccc(OCc3ccccc3)cc2)O1`, for which the TGI in the assay with T-47D breast was more than 100 µM; in the assay on SK-MEL-2 melanoma, more than 100 µM; in the assay on ACHN renal, more than 100 µM; with M14 melanoma, more than 100 µM; in the assay with SW-620 colon, more than 100 µM; in the assay on MDA-MB-231 breast, 51.4 µM. Moreover, the results for the TGI in the assay on SNB-19 CNS and with CAKI-1 renal were 45 µM and more than 100 µM, respectively.
As to `COC(=O)C1=CCC2c3[nH]c4ccccc4c3CCN2C1` (configuration not stated), the TGI with SK-MEL-2 melanoma, in the assay with ACHN renal, in the assay on NCI-H460 lung, in the assay on SW-620 colon, with SNB-19 CNS and in the assay on SF-539 CNS was more than 354 µM each time. In the assay with CAKI-1 renal, this molecule registered a TGI of more than 354 µM.
Regarding `CSC1=Nc2ccccc2N=C(c2ccccc2)C1`, the TGI was more than 100 µM in the assay on SK-MEL-2 melanoma; more than 100 µM in the assay on ACHN renal; 46.8 µM in the assay with NCI-H460 lung; more than 100 µM in the assay on M14 melanoma; 32.6 µM in the assay on SW-620 colon; more than 100 µM with SNB-19 CNS. In addition, the TGI in the assay with SF-539 CNS and with CAKI-1 renal was more than 100 µM in each case.
For the molecule `CC(C)=CCc1cc(/C=C/C(=O)O)cc(CC=C(C)C)c1O`, the TGI with SK-MEL-2 melanoma, with ACHN renal, in the assay on NCI-H460 lung, with M14 melanoma, in the assay on SW-620 colon and in the assay on MDA-MB-231 breast was more than 100 µM in each case. Moreover, the TGI with SNB-19 CNS, in the assay with SF-539 CNS and with CAKI-1 renal was more than 100 µM in each case.
For the molecule `O=c1c2cc([N+](=O)[O-])ccc2n2n1CCCCC2`, the TGI in the assay with ACHN renal, in the assay on NCI-H460 lung, with M14 melanoma, in the assay with SW-620 colon, in the assay on MDA-MB-231 breast and in the assay with SNB-19 CNS was more than 100 µM in each case. Besides, the TGI with SF-539 CNS and with CAKI-1 renal was more than 100 µM each time.
As for `CC(N)C(C)c1ccccc1` (configuration not stated), the TGI in the assay with SK-MEL-2 melanoma, in the assay on ACHN renal, in the assay with NCI-H460 lung, in the assay with M14 melanoma, with SW-620 colon and in the assay with SNB-19 CNS was more than 100 µM each time. The TGI with SF-539 CNS and with CAKI-1 renal was more than 100 µM in each case.
For the molecule `Cn1c(=O)n(C2(C)CSC2)c2ccccc21`, the TGI with ACHN renal, in the assay with NCI-H460 lung, with M14 melanoma, with SW-620 colon, in the assay with SNB-19 CNS and in the assay on SF-539 CNS was more than 100 µM each time. Moreover, the TGI in the assay on CAKI-1 renal is more than 100 µM.
As for `O=c1oc2ccccc2n1P(=O)(Oc1ccc(Cl)cc1)n1c(=O)oc2ccccc21`, the TGI in the assay with SK-MEL-2 melanoma, with ACHN renal, in the assay with SW-620 colon, with SNB-19 CNS, in the assay on SF-539 CNS and in the assay with CAKI-1 renal was more than 100 µM throughout.
Take `N=c1oc2cc(O)ccc2cc1C(=O)Nc1cccc2ccccc12`: the TGI was 19.6 µM in the assay on T-47D breast; 15.9 µM in the assay with ACHN renal; 30.2 µM in the assay on NCI-H460 lung; 60 µM in the assay on M14 melanoma; 45.9 µM in the assay on SW-620 colon; 10.1 µM in the assay with MDA-MB-231 breast. Besides, the TGI came to 35.4 µM in the assay with SNB-19 CNS and 24.8 µM in the assay on CAKI-1 renal.
With `CC#CC#C/C=C1\C=CC2(OC=CC2O)O1` (configuration not stated), the TGI in the assay with SK-MEL-2 melanoma, with ACHN renal, in the assay with NCI-H460 lung, with M14 melanoma, with SW-620 colon and with SNB-19 CNS was more than 23.3 µM throughout. Also, the TGI in the assay on SF-539 CNS and in the assay on CAKI-1 renal was more than 23.3 µM each time.
Turning to `CC1CCc2c(sc3ncnc(N/N=C/c4ccc(Cl)cc4)c23)C1` (configuration not stated), the TGI is more than 100 µM in the assay with SK-MEL-2 melanoma; 94.9 µM in the assay on ACHN renal; more than 100 µM in the assay with NCI-H460 lung; 68.2 µM in the assay on M14 melanoma; more than 100 µM with SW-620 colon; 93 µM in the assay with SNB-19 CNS. For the same molecule, the TGI with CAKI-1 renal amounted to 89.5 µM.
Regarding `O=C(OCC(OC(=O)c1ccccc1)C1CC(C2(O)CCCCC2)C(=O)O1)c1ccccc1` (configuration not stated), the TGI with SK-MEL-2 melanoma, with ACHN renal, in the assay with NCI-H460 lung, in the assay with M14 melanoma, in the assay with SW-620 colon and in the assay with MDA-MB-231 breast was more than 25 µM throughout. Besides, the TGI with SNB-19 CNS, with SF-539 CNS and with CAKI-1 renal was more than 25 µM throughout.
`CCCCCCc1cc2cc(C(=O)Nc3cccc(F)c3)c(=N)oc2cc1O`: the TGI in the assay on T-47D breast was 7.35 µM; in the assay with SK-MEL-2 melanoma, 5.44 µM; with ACHN renal, more than 100 µM; with NCI-H460 lung, more than 100 µM; in the assay on M14 melanoma, 11.3 µM; in the assay with SW-620 colon it was more than 100 µM. In addition, the TGI with SNB-19 CNS was determined as 23.9 µM; with SF-539 CNS it was 19.2 µM; with CAKI-1 renal, 10.2 µM.
